# What was measured:
# [1] = tested on: acetylation of histone H4; test: Analysis of protein acetylation in human PBMC (western blot); type: cell-based; conditions: 4 hr
# Protocol: (§1) Human peripheral blood mononuclear cells (PBMC) (IRB No. CKD-IRB-012) were seeded (1.0 × 10^6 cells/well) and cultured for 24 hr on 12-well plate before treatment of CKD-506 or LBH-589. The chemicals were treated for 4 hr. After harvesting cells, total protein extracts were prepared. The protein extracts were resolved in pre-made SDS-PAGE (NuPAGE® Bis-Tris Precast Gels, Invitrogen). Proteins were transferred onto polyvinylidene difluoride (PVDF) membrane and probed with the following antibodies; anti-acetyl α tubulin (1:5000, #5335, Cell Signaling Technology), α tubulin (1:2000, #2144, Cell Signaling Technology), anti-acetyl histone H4(1:5000, #8647, Cell Signaling Technology), anti-histone H4(1:1000, #2935S, Cell Signaling Technology), and anti-beta-actin (1:5000, #A5441, Sigma). The horseradish peroxidase-conjugated anti-rabbit IgG (1:5000, #7074S, Cell Signaling Technology) and anti-mouse IgG (1:5000, #7076 S, Cell Signaling Technology) were used as secondary antibodies. Acetylated proteins were visualized by chemiluminescence (RPN2235, GE healthcare) and detected by the Gel documentation system (ChemiDoc™, BioRad).
# [2] = tested on: acetylation of α tubulin; test: as above; type: cell-based
# Protocol: as §1
# [3] = Pharmacokinetic analysis after single intraperitoneal injection; type: in vivo, NZB/W F1 mice; conditions: for AUCinf / AUC0-24hr / Cmax / T1/2 / Tmax: plasma, mean ± SD; for AUCinf: extrapolated
# Protocol: Four 23-week old female NZB/W F1 mice were purchased from Jackson Laboratory and housed in CKD Research Institute animal facility. This study was reviewed and approved by the Institutional Animal Care and Use Committee of CKD Research Institute. All procedures were in compliance with Animal Welfare Act Regulations and the Guide for the Care and Use of Laboratory Animals. The indicated amount of CKD-506 was injected intraperitoneally into NZB/W F1 mice. Blood samples were collected from retro-orbital plexus using a heparinized capillary tube under diethyl-ether anesthesia at pre-dose (0) and 0.25, 1, 2, 4, 8 and 24 hours post-dose at day of PK sampling. After centrifugation at 13,000 rpm for 4 min and 4 °C, ten microliters of the separated plasma was dispensed into microtube and 120 μl of organic solvent (90% acetonitrile (in MeOH, v/v)) was immediately added for deproteinization/extraction. The pre-treated samples had been kept at −70 °C until analysis. Ten microliters of internal standard (verapamil 500 ng/ml in acetonitrile) was added into the pre-treated plasma samples and vortexed for 1 min and then, centrifuged at 13,000 rpm for 4 min and 4 °C. Eighty microliters of the supernatant of the sample were transferred into a 96 well-autosampler plate and 40 μl of HPLC water was then added in each well. The concentration of CKD-506 in samples were analyzed using API 4000 QTRAP (AB SCIEX) (Framingham, MA).
# [4] = tested on: NZB/W F1 female mice; test: Murine SLE model: kidney histopathology (H&E, PAS, Masson trichrome); type: in vivo, mouse; conditions: group CKD10
# Excerpt: (§2) Survival had been monitored until 42 weeks of age.
# Kidneys were harvested from mice at the end of the study (at 43–44 weeks of age). For light microscopy, the tissues were fixed in 10% neutral buffered formalin, embedded in paraffin wax, sectioned at a thickness of 5 μm and stained with H&E (BBC Biochemical, Mount Vernon, WA, USA). Periodic acid/Schiff (PAS stain kit, BBC Biochemical) staining and Masson trichrome (BBC Biochemical) staining were used for the detection of […] and fibrosis, respectively. Inflammatory cell infiltration and mesangial proliferation were scored on a 4-point scale as 0 (none), 1+ (mild), 2+ (moderate), 3+ (moderate to severe) and 4+ (severe).
# [5] = tested on: NZB/W F1 female mice; test: Murine SLE model: serum immunoglobulin isotyping; type: in vivo, mouse; conditions: group CKD50
# Protocol: as §2
# Serum immunoglobulin concentrations were determined with mouse IgG1, IgG2A, IgG2B, IgG3, and IgM Isotyping kits and a mouse Mag Isotyping assay base kit (R&D Systems, Minneapolis, MN). Thirty-fold diluted sera were used for analysis of IgM and IgG2B levels, 6000-fold diluted sera were used for analysis of IgG1 and IgG2A levels and 48,000-fold diluted sera were used for analysis of IgG3 level.
# [6] = set-up: method as in EudraCT number: 2016-002816-42; conditions: ref EudraCT number: 2016-002816-42; cited from earlier work
# [7] = tested on: NZB/W F1 female mice; test: Murine SLE model: serum chemistry and necropsy; conditions: for ALP / ALT / AST / Albumin / CPK / Ca / Total bilirubin / Total protein: serum at autopsy, mean ± SD
# Protocol: Control mice received 150 μL of vehicle (Ethanol: Kolliphor® EL: saline = 1:1:8) and were subjected to the same schedule. Survival rate and incidence of severe proteinuria (percent individual mice with urine protein ≥300 mg/dL) were calculated. Survival had been monitored until 42 weeks of age.
substance,measurement,setting,value
CKD-506,effect on acetylation of histone H4,[1],without affecting
same,"acetylation of α tubulin, % of maximum acetylation","[2]; at 100 nM, human PBMC",about 85%
same,IC90,[2]; read-out: IC90 for the induction of α tubulin acetylation,~100 nM
same,AUCinf,[3]; 10 mg/kg i.p. single,818 ± 130 ng·h/mL
same,AUC0-24hr,[3]; 10 mg/kg i.p. single,737 ± 104 ng/h/mL
same,Cmax,[3]; 10 mg/kg i.p. single,1336 ± 95.6 ng/mL
same,T1/2,[3]; 10 mg/kg i.p. single,14.0 ± 2.60 h
same,Tmax,[3]; 10 mg/kg i.p. single,0.25 ± 0.00 h
same,time for which dose is enough to inhibit in vivo HDAC6 activity,[3]; 30 mg/kg,more than 2 hr
same,AUCinf,[3]; 30 mg/kg i.p. single,2129 ± 275 ng·h/mL
same,AUC0-24hr,[3]; 30 mg/kg i.p. single,1997 ± 290 ng/h/mL
same,Cmax,[3]; 30 mg/kg i.p. single,3749 ± 314 ng/mL
same,T1/2,[3]; 30 mg/kg i.p. single,9.64 ± 4.08 h
same,Tmax,[3]; 30 mg/kg i.p. single,0.25 ± 0.00 h
same,time for which dose is enough to inhibit (90% of) in vivo HDAC6 activity,[3]; 50 mg/kg,more than 4 hr
same,AUCinf,[3]; 50 mg/kg i.p. single,4321 ± 408 ng·h/mL
same,AUC0-24hr,[3]; 50 mg/kg i.p. single,4028 ± 419 ng/h/mL
same,Cmax,[3]; 50 mg/kg i.p. single,7276 ± 585 ng/mL
same,T1/2,[3]; 50 mg/kg i.p. single,10.0 ± 1.33 h
same,Tmax,[3]; 50 mg/kg i.p. single,0.25 ± 0.00 h
same,exposure (Cmax and AUC) versus dose,"[3]; 10, 30, 50 mg/kg i.p.",increased in a dose-dependent manner
same,plasma half-life (T1/2),"[3]; single IP, overall statement",about 10 hrs
same,Masson's trichrome staining of kidneys,[4],fibrosis
same,Periodic acid-Schiff (PAS) staining of kidneys,[4],dilated tubules and casts
same,histopathological evaluation of the kidneys (H&E),[4],Large numbers of inflammatory cell infiltrations and mesangial proliferation
same,serum levels of IgM vs vehicle,[5],significantly lower
same,safety in phase I clinical trial,[6],did not reveal significant safety issues
same,"appearance of the spleen, kidneys, liver, lungs, or heart (gross or microscopic examination at necropsy)",[7]; end of experiment,did not result in significant changes
same,serum ALT relative to reference range,"[7]; group CKD50, significantly higher than the other groups",within the reference range
same,ALP,[7]; group D: CKD-506 10 mg/kg/day,187.44 ± 62.24 U/l
same,ALT,[7]; group D: CKD-506 10 mg/kg/day,18.10 ± 5.43 U/l
same,AST,[7]; group D: CKD-506 10 mg/kg/day,44.20 ± 10.09 U/l
same,Albumin,[7]; group D: CKD-506 10 mg/kg/day,1.91 ± 0.43 g/dL
same,CPK,[7]; group D: CKD-506 10 mg/kg/day,86.70 ± 56.89 U/l
same,Ca,[7]; group D: CKD-506 10 mg/kg/day,10.08 ± 1.26 mg/dL
same,Total bilirubin,[7]; group D: CKD-506 10 mg/kg/day,0.22 ± 0.09 mg/dL
same,Total protein,[7]; group D: CKD-506 10 mg/kg/day,4.74 ± 0.63 g/dL
same,ALP,[7]; group E: CKD-506 30 mg/kg/day,155.92 ± 19.94 U/l
same,ALT,[7]; group E: CKD-506 30 mg/kg/day,20.79 ± 2.91 U/l
same,AST,[7]; group E: CKD-506 30 mg/kg/day,55.21 ± 19.34 U/l
same,Albumin,[7]; group E: CKD-506 30 mg/kg/day,2.19 ± 0.43 g/dL
same,CPK,[7]; group E: CKD-506 30 mg/kg/day,84.71 ± 31.40 U/l
same,Ca,[7]; group E: CKD-506 30 mg/kg/day,9.65 ± 0.69 mg/dL
same,Total bilirubin,[7]; group E: CKD-506 30 mg/kg/day,0.26 ± 0.12 mg/dL
same,Total protein,[7]; group E: CKD-506 30 mg/kg/day,5.21 ± 0.71 g/dL
same,ALP,[7]; group F: 50 mg/kg/day,153.08 ± 17.25 U/l
same,ALT,[7]; group F: 50 mg/kg/day,29.07 ± 12.21 U/l
same,AST,[7]; group F: 50 mg/kg/day,59.00 ± 56.14 U/l
same,Albumin,[7]; group F: 50 mg/kg/day,2.26 ± 0.35 g/dL
same,CPK,[7]; group F: 50 mg/kg/day,125.86 ± 177.18 U/l
same,Ca,[7]; group F: 50 mg/kg/day,9.43 ± 0.59 mg/dL
same,Total bilirubin,[7]; group F: 50 mg/kg/day,0.28 ± 0.14 mg/dL
same,Total protein,[7]; group F: 50 mg/kg/day,5.35 ± 0.60 g/dL
